Measured values as given in patent US11999697B2, “Methods and compositions for inhibition of dihydroorotate dehydrogenase” (OHIO STATE INNOVATION FOUNDATION, priority 2018, dated 2024).
Where a name gives a salt, the structure may show the parent alone.

Tests used:
[1] = system: OCI-AML3; assay: MTS cell proliferation assay, OCI-AML3; assay type: cell-based; conditions: Homo sapiens, OCI-AML-3, 96 hours, read-out: IC50 (μM) at 96 hours, OCI-AML3
Description: (§1) Triplicate wells were set up for each condition.
(§2) The assays were carried out in a blinded fashion.

[2] = system: MOLM-13; assay: MTS cell proliferation assay, MOLM-13; assay type: cell-based; conditions: Homo sapiens, 96 hours
Description: as §1, §2

[3] = biological target: T1, DHODH (Homo sapiens, UniProt Q02127); assay: DHODH enzymatic assay (DCIP reduction); assay type: biochemical; conditions: for DHODH inhibition, % inhibition: compound concentration not given; for IC50: range in parentheses, read-out: DHODH inhibition, IC50
T1 construct: made in house
T1 sequence (Q02127 whole entry): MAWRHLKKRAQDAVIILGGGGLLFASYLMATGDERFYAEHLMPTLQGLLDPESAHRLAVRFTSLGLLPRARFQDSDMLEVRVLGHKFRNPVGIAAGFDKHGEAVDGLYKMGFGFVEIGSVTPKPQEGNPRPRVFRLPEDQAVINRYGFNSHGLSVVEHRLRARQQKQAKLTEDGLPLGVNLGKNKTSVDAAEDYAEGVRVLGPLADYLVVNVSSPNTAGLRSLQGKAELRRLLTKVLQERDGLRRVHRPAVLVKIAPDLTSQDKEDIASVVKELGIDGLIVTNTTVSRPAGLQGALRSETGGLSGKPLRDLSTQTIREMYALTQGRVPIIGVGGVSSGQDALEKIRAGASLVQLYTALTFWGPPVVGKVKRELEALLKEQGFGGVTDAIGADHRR
Description: DHODH Enzymatic Assay: DHODH activity was determined at 25° C. following the reduction of 2,6-dichloroindophenol sodium salt (DCIP) at 600 nm (ε=18 800 M^−1 cm^−1) on a spectrophotometer. The reaction medium used contained 50 mM Tris-HCl, pH 8.0, 0.1% Triton X-100, 0.1 mM LDHO, 0.025 mM CoQ1, and 0.06 mM DCIP. The reaction was started by addition of the enzyme. The inhibitory potency of the compounds was evaluated by measuring the initial velocity of the reaction either in the absence or in the presence of the compounds at the indicated concentrations. The DHODH enzyme used was the recombinant human enzyme prepared as previously described (Helene Munier-Lehmann, et al., J. Med. Chem. 2015, 58:860-877).

[4] = system: THP1; assay: MTS cell proliferation assay, THP1; assay type: cell-based; conditions: Homo sapiens, THP-1, 96 hours
Description: as §1, §2

[5] = system: HL-60; assay: MTS cell proliferation assay, HL-60; assay type: cell-based; conditions: Homo sapiens, 96 hours
Description: as §1, §2

[6] = system: MV4-11; assay: MTS cell proliferation assay, MV4-11; assay type: cell-based; conditions: Homo sapiens, MV4-11; 96 hours, MTS; read-out: IC50 (μM) at 96 hours, MV4-11
[7] = system: IDH2-R140Q/Flt3-ITD spleen cells (murine AML); assay: IDH2-R140Q/Flt3-ITD adoptive transfer model; assay type: in vivo, NCG mice; conditions: daily oral gavage; Cpd3 50 mg/kg, enasidenib 100 mg/kg
From the text: Leukemic cells derived from a spontaneous murine model of Idh2/Flt3 AML, as reported by Shih et al (Cancer Discov. 7(5):494-505), were engrafted via adoptive transfer to generate an aggressive model of AML suitable for testing of therapeutic agents. Briefly, 6-8 week old mice harboring a heterozygous internal tandem duplication of FMS-like tyrosine kinase 3 (Flt3-ITD), a heterozygous point mutation of isocitrate dehydrogenase 2 (Idh2-R140Q) preceeded by a loxP flanked STOP codon, and Cre recombinase under the MX dynamin like GTPase 1 (Mx1) promoter were injected i.p. with polyinosinic:polycytidylic acid (poly(I:C)), activating Cre recombinase and inducing hematopoietic-specific expression of the Idh2-R140Q mutation. Spleen cells from these mice were collected after the development of lethal AML (defined by study removal criteria), typically 8-14 months post-poly(I:C) injection. 1×10^5 spleen cells from a single leukemic donor were engrafted by tail vein injection into 6 week old immune deficient NOD-Prkdc^em26Cd52//2rg^em26Cd22/NjuCrl mice (NCG; Charles River). At one week post-engraftment, animals were randomized to vehicle (5% EtOH, 10% Kolliphor EL, in PBS), enasidenib (100 mg/kg), and HOSU-3 (50 mg/kg) treatment arms and dosed by daily oral gavage. Personnel responsible for animal monitoring, dosing, and decisions regarding euthanasia were blinded to treatment arms. Survival was assessed using Kaplan-Meier analysis and p-values were determined using the log-rank test and adjusted using Holm's method.

[8] = system: AML cell lines (MOLM13, MV4-11, THP1, HL-60, and OCI-AML3)
Description: MTS assay for cell growth/viability: Mitochondrial activity was measured to determine cell proliferation using an MTS assay (tetrazolium dye 3′[4,5-dimethylthiazol-2-yl]-2,5-diphenyl-tetrazolium bromide). Metabolically active cells convert MTS tetrazolium salt into a purple formazan product that is soluble in tissue culture medium. The amount of formazan measured at 490 nm absorbance is proportional to the number of proliferating cells. […] Triplicate wells were set up for each condition. At 96 hours, the MTS reagent was added and after approximately 4 hours the plates were read in a spectrophotometer. MTS assays in primary AML cells were done in a similar manner as the cell lines with the following changes: 100K cells were plated per well, and the MTS was done in the presence of an HS5 stromal cell line to support the in vitro growth of the primary cells. Primary cells were incubated with MTS for approximately 8-12 hours (varies with the samples) before reading the absorbance.
Cell proliferation assays were carried out using the MTS assay described herein using five AML cell lines (i.e., MOLM13, MV4-11, THP1, HL-60, and OCI-AML3) with varied genetic backgrounds. The assays were carried out in a blinded fashion.

Row | Structure (SMILES) | IC50 [1] [µM] | IC50 [2] [µM] | DHODH inhibition, % inhibition [3] [%] | IC50 [3] [µM] | IC50 [4] [µM] | IC50 [5] [µM] | IC50 [6] [µM] | Median survival [7] [days] | cytotoxicity compared to the free acid form and brequinar [8]
1 | O=C(O)c1cc(-c2ccc(-c3ccc(C(F)(F)F)cc3)cc2)nc2ccc(-c3ccc(F)cc3)cc12 [Cpd17, 6-(4-fluorophenyl)-2-(4′-(trifluoromethyl)-[1,1′-biphenyl]-4-yl)quinoline-4-carboxylic acid] | – | – | 8 | – | – | – | – | – | –
2 | CC(C)(O)CNc1nc(Nc2ccnc(C(F)(F)F)c2)nc(-c2cccc(C(F)(F)F)n2)n1 [Enasidenib, reference compound] | – | – | – | – | – | – | – | 34 | –
3 | CCOc1ccc(-c2ccc(-c3cc(C(=O)O)c4cc(F)ccc4n3)cc2)cc1 [sodium salt form of Cpd3, Sodium 2-(4′-Ethoxy-[1,1′-biphenyl]-4-yl)-6-fluoroquinoline-4-carboxylate] | – | – | – | – | – | – | – | – | equally cytotoxic against AML cell lines

Continued, in another order:

Row | IC50 [1] [µM] | IC50 [2] [µM] | DHODH inhibition, % inhibition [3] [%] | IC50 [3] [µM] | IC50 [4] [µM] | IC50 [5] [µM] | IC50 [6] [µM] | Structure (SMILES) | Median survival [7] [days] | cytotoxicity compared to the free acid form and brequinar [8]
4 | 3.37 | 3.02 | 95 | 0.099 | 7.84 | 20.9 | 6.96 | COc1ccc(-c2ccc(-c3cc(C(=O)O)c4cc(Cl)ccc4n3)cc2)cc1 [Cpd5, 6-chloro-2-(4′-methoxy-[1,1′-biphenyl]-4-yl)quinoline-4-carboxylic acid] | – | –
5 | 6.25 | 6.91 | 99 | 0.076 | 10.4 | 3 | 6.48 | O=C(O)c1cc(-c2ccc(-c3ccc(F)cc3)cc2)nc2ccc(Cl)cc12 [Cpd6, 6-chloro-2-(4′-fluoro-[1,1′-biphenyl]-4-yl)quinoline-4-carboxylic acid] | – | –
